{"source": "patent US20210069230A1", "about": "“SYNERGISTIC DRUG COMBINATIONS PREDICTED FROM GENOMIC FEATURES AND SINGLE-AGENT RESPONSE PROFILES” (THE BROAD INSTITUTE, INC., priority 2018, published 2021)", "key": {"[1]": {"conditions": "cited from earlier work"}, "[2]": {"tested_on": "ATF4/metallothionein/ER stress", "conditions": "cited from earlier work"}, "G402 cells": {"tested_on": "G402 cells", "assay": "Overexpression of MGLL WT or enzyme-dead MGLL S132A, GSK-J4 sensitivity", "assay_type": "cell-based", "procedure": "Cell lines were taken from viably frozen stocks of the same original provenance as for CTRP and DepMap data, with identity confirmed by SNP-based DNA fingerprinting as described previously (12, 13, 39). Cell lines were propagated using the same media and culture conditions as for CTRPv2.0 experiments. For drug-treatment assays, 1000 cells per well were plated into 30 or […], of media in 384-well plates. For live-cell imaging, cells were plated into clear-bottom plates (Corning) and imaged on an IncuCyte S3 throughout the course of the experiment. For CellTiter-Glo experiments, the initial viability of a subset of plated cells was established at the same time as compound addition using CellTiter-Glo as described previously (24). Remaining cells were exposed to compounds and/or vehicle (constant DMSO volume) using a Tecan D300e Digital Dispenser, and CellTiter-Glo was added 72 hours later. DMSO- and D0-normalized concentration-response curves were generated using four-parameter nonlinear regression using the drc package in R (40). […] For calculation of drug combination effects, curves were fit and deviation from the null model (Loewe additivity) assessed using the BIGL package in R (reference: PMID 29263342) (41). […] Overall significance was assessed using the bootstrapped meanR test (n=1000 iterations), and per-concentration significance using maxR, as described by the package authors. […]"}, "HEC1A and SUIT2 cells": {"tested_on": "HEC1A and SUIT2 cells", "assay": "CRISPR-Cas9 knockout of MGLL, GSK-J4 sensitivity", "assay_type": "cell-based", "conditions": "4 different sgRNAs", "procedure": "Cas9 stably-infected HEC1A, MEWO, SUIT2, and WM2664 cells and sgRNAs (pXPR_BRD003 vector) targeting AIFM2, IRS2, MGLL, or control guides (non-cutting) were acquired from the GPP (FIG. 23). Cell line identities were confirmed to match parental cells using SNP fingerprinting. Virus was generated and infection carried out as described above. After puromycin selection (3 μg/mL for MEWO, 1.5 μg/mL for WM2664, 2 μg/mL for SUIT2 and HEC1A), cells were seeded in 384-well plates for compound treatment or harvested for Western blotting as described above.\nFurther, MGLL knockout in HEC1A cells was rescued by overexpression of MGLL when using an sgRNA that targeted MGLL across an intron-exon boundary and that therefore could not cut the MGLL ORF."}, "MGLL": {"target": "MGLL (Homo sapiens, UniProt Q99685)", "sequence (Q99685 whole entry)": "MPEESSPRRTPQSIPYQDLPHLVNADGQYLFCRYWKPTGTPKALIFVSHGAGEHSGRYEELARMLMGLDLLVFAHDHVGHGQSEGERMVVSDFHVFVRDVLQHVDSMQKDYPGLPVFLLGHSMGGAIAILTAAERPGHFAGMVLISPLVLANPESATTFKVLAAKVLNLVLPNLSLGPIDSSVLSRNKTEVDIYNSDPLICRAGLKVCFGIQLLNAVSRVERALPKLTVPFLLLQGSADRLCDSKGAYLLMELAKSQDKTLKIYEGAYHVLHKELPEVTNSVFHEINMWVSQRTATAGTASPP", "assay": "Recombinant protein/mass spec assay of MGLL-mediated modification", "assay_type": "biochemical", "description": "The GSK-J4-modifying impact of MGLL is examined further via a recombinant protein/mass spec assay."}, "KMRC3 cells": {"tested_on": "KMRC3 cells", "assay": "IncuCyte live-cell microscopy of cellular proliferation", "assay_type": "cell-based", "procedure": "(§1) Cell lines were taken from viably frozen stocks of the same original provenance as for CTRP and DepMap data, with identity confirmed by SNP-based DNA fingerprinting as described previously (12, 13, 39). Cell lines were propagated using the same media and culture conditions as for CTRPv2.0 experiments. […] For live-cell imaging, cells were plated into clear-bottom plates (Corning) and imaged on an IncuCyte S3 throughout the course of the experiment. For CellTiter-Glo experiments, the initial viability of a subset of plated cells was established at the same time as compound addition using CellTiter-Glo as described previously (24). […] DMSO- and D0-normalized concentration-response curves were generated using four-parameter nonlinear regression using the drc package in R (40). Biphasic curves were also fit and prioritized relative to standard four-parameter curves where appropriate using the BIC (Bayesian information criteria) metric. […] General-purpose optimization (Nelder-Mean algorithm) was used for single-agent fits, and the “model” option was used to predict variance. Overall significance was assessed using the bootstrapped meanR test (n=1000 iterations), and per-concentration significance using maxR, as described by the package authors."}, "[3]": {"tested_on": "G402 and CJM cells overexpressing MGLL", "assay": "Lentiviral ORF overexpression, compound sensitivity (CellTiter-Glo, GR)", "assay_type": "cell-based", "conditions": "72 hours", "procedure": "as §1\nInfection and selection were carried out according to GPP Viral Infection protocols, followed by cell seeding in 384-well plates for compound treatment or harvesting for Western blotting as described above.\nParental cell lines were virally transduced with cDNAs that constitutively overexpressed BCL2L1, AIFM2, or MGLL (in G402 and CJM cells); ABCB1 or MGMT (in WM2664 cells); SLC7A11 (in BT12 and G402 cells); MCL1 (in HCC1500 cells); or IRS2 (in T47D cells) and subsequently drug sensitivity was measured. To account for potential differences in growth rates and to distinguish between cytostatic and cytotoxic drug responses, the normalized growth rate inhibition (GR) metric was used to assess cell viability (FIG. 3A) (18)."}}, "data": [{"smiles": "CCOC(=O)CCNc1cc(N2CCc3ccccc3CC2)nc(-c2ccccn2)n1", "note": "[GSK-J4]", "values": [{"measurement": "cellular permeability", "setting": "[1]", "result": "high cellular permeability"}, {"measurement": "time to induction of ATF4/metallothionein/ER stress", "setting": "[2]", "result": "≤ 6", "unit": "h"}, {"measurement": "sensitivity of MGLL S132A overexpressing cells versus parental or control-infected cells", "setting": "G402 cells; MGLL S132A", "result": "equally sensitive"}, {"measurement": "effect of MGLL WT overexpression", "setting": "G402 cells; MGLL WT", "result": "significant resistance"}, {"measurement": "effect of knockout of MGLL on response", "setting": "HEC1A and SUIT2 cells", "result": "sensitize"}, {"measurement": "MGLL-mediated modification", "setting": "MGLL", "result": "confirmed"}, {"measurement": "rescue of proliferation effects by MGLL", "setting": "KMRC3 cells", "result": "durably rescued"}, {"measurement": "time at which effects on cell proliferation were observed", "setting": "KMRC3 cells", "result": "≤ 12", "unit": "h"}, {"measurement": "shift in GR50 conferred by MGLL overexpression", "setting": "[3]", "result": 20, "unit": "fold"}]}]}
